“And” between values parts separate entries of the source, which are not always exact repeats. Identical values can stand only once.
Key:
[1] = target: T1, 17β-HSD10 (Homo sapiens, UniProt Q99714); assay: Inhibition of 17β-estradiol to estrone transformation by purified recombinant 17β-HSD10 (NADH fluorescence); assay type: biochemical; settings: purified recombinant 17β-HSD10, 17β-estradiol as substrate; means ± SEM (n = 4)
T1 construct: inferred from Ni-NTA purification with imidazole elution; made in house; host or cells: E. coli BL21 (DE3)
T1 sequence (Q99714 1-261): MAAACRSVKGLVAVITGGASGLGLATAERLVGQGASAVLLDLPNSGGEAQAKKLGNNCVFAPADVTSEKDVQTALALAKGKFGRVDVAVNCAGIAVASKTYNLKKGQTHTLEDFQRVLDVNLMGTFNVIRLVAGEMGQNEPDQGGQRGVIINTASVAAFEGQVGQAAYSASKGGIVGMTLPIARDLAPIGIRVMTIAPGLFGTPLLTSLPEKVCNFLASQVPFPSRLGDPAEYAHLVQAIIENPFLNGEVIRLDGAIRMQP
Experimental: As standards, we used the known inhibitor AG18051 as the positive control and the published steroidal compounds,[18] namely, pregnenolone, testosterone, dihydrotestosterone, androsterone, epiandrosterone, and dehydroepiandrosterone.
17β-HSD10 was performed as described previously.[11] Briefly, the autoinduction and overexpression were performed at 25 °C for 18 h in the E. coli BL21 (DE3) strain. The bacterial pellet was resuspended in lysis buffer that consisted of sodium phosphate buffer ([…]), NaCl (150 mM), and imidazole (10 mM, pH 8.0) with 1 mg/mL lysozyme and benzonase (150 U/mL). cOmplete EDTA-free protease inhibitor cocktail was incubated for 20 min on ice and then sonicated (12 × 10 s pulses with 30 s pauses). The supernatant was applied to the Ni-NTA agarose resin after centrifugation (16 000g, 10 min, 4 °C). Then, the solution was incubated on ice for 1 h with gentle stirring.
The standard steroids were screened at 1 and 10 μM concentrations, and the tested compounds and standard AG18051 were screened at 10 μM concentration. For compounds with at least 50% inhibition of 17β-HSD10, the IC50 values were determined.
Steroid stock solutions (5 mM) were further diluted with DMSO to the working concentrations. DMSO was used as a vehicle control, and AG18051 was used as a control inhibitor. The enzyme activity was determined fluorometrically at 37 °C in the activity assay buffer [100 mM potassium phosphate buffer (pH 8.0)]. The general reaction mixture (200 μL per well) consisted of 17β-estradiol (25 μM, DMSO), NAD+ (500 μM, deionized water), recombinant 17β-HSD10 (45 nM), and different concentrations of inhibitor (2.2% (v/v) final concentration of DMSO as solvent). Before the addition of substrate, the reaction mixture of enzyme, cofactor, and inhibitor in the assay buffer was preincubated for 5 min at 37 °C. The increase of fluorescence (Ex/Em = 340/460 nm) due to the formation of NADH was monitored for 20 min (30 s intervals). For IC50 value determination, dose–response inhibition at 11 different concentrations of inhibitor (0.6–33.75 μM) was determined and the data were analyzed by GraphPad Prism 8.4.3 (GraphPad Software Inc.). All measurements were performed in a tetraplicate.

[2] = parameters: method as in PMID 30296546; settings: cited from earlier work

C[C@@]12CCC[C@H]1[C@@H]1CC=C3C[C@@H](OC(=O)CCCCC(=O)O)CC[C@]3(C)[C@H]1CC2 [Compound 23, Androst-5-en-3β-yl Hemiadipate]
IC50 [1]: ~5.59 µM and 5.59 µM | human plasma stability, % remaining after 8 h [2]: 100%

— publication PMC10938439, “C-3 Steroidal Hemiesters as Inhibitors of 17β-Hydroxysteroid Dehydrogenase Type 10” (ACS Omega, 2024)
